Reference: article PMC11497058, “Ginsenoside Rg3 Restores Mitochondrial Cardiolipin Homeostasis via GRB2 to Prevent Parkinson's Disease” (Advanced Science, 2024)
Where a name gives a salt, the structure may show the parent alone.

The molecules below were run against T1, Growth Factor Receptor-Bound Protein 2 (GRB2) (Homo sapiens, UniProt P62993) (assay: bio-layer interferometry (ForteBio Octet); supported by thermal shift assay (CETSA) and LiP-SMap).
T1 construct: Recombinant His-tagged GRB2 (pET-28a, E. coli)
Format: binding

Compound	Kd [nM]
CC(C)=CCC[C@](C)(O)[C@H]1CC[C@]2(C)[C@@H]1[C@H](O)C[C@@H]1[C@@]3(C)CC[C@H](O[C@@H]4O[C@H](CO)[C@@H](O)[C@H](O)[C@H]4O[C@@H]4O[C@H](CO)[C@@H](O)[C@H](O)[C@H]4O)C(C)(C)[C@@H]3CC[C@]12C [Rg3, Ginsenoside Rg3]	869

The molecules below were run against GRB2 (Homo sapiens, UniProt P62993) (assay: biochemical).
Design: Surface plasmon resonance screen of compounds binding to GRB2, KD
From the text: To further validate the universal impact of TRKA‐GRB2 axis‐targeted molecular in enhancing CL expression and ameliorating PD, we employed Surface Plasmon Resonance (SPR) technology^[ [58] ^] to screen compounds that bind to GRB2 (Figure 8a). Subsequently, we identified 11 compounds with a KD value at the […] (Table S9, Supporting Information). The viability of SH‐SY5Y cells exposed to mpp+ or 6‐OHDA increased upon treatment with TDF and [compound left out] (Figure S13a and b, Supporting Information). TDF acts as a prodrug of tenofovir, a nucleotide reverse transcriptase inhibitor.^[ [59] ^] On the other hand, [compound left out] is specially formulated for ophthalmological steroid‐based treatments.^[ [60] ^] Considering its oral administration capability, we selected TDF for further research (Figure S13c and d, Supporting Information). TDF facilitated the clearance of overexpressed A53T‐αSyn in SH‐SY5Y cells (Figure S13e and f, Supporting Information) and promoted the interaction between GRB2 and TRKA without affecting the interaction between GRB2 and EGFR in these cells (Figure 8b–d). Treatment with TDF enhanced CRLS1 expression and restored the decreased mitochondrial CL levels caused by A53T‐αSyn in SH‐SY5Y cells. However, knockdown of GRB2 or TRKA in SH‐SY5Y cells attenuated TDF‐induced effect (Figure 8e–g). Moreover, TDF increased TRKA phosphorylation, ERK phosphorylation, and CRLS1 expression, while GW441756 […] these changes (Figure S13g–j, Supporting Information). When SCH772984 was employed, it blocked the ability of TDF to increase ERK phosphorylation and CRLS1 expression (Figure S13k–m, Supporting Information). The impairment of exercise ability was alleviated following TDF (80 mg kg^−1) treatment, resulting in an increase in the distance travelled by A53T‐αSyn‐treated mice (Figure 8h,i). […] Western blotting was performed to evaluate the expression of TRKA and EGFR in cell lysates immunoprecipitated with an anti‐GRB2 antibody (b). Quantification of TRKA levels (c) and EGFR levels (d). e,f) Representative western blot images of CRLS1, GRB2, TRKA in SH‐SY5Y cells treated with TDF (10 µM) or DMSO (0.1%) for 24 h after transfection with Scramble, GRB2 or TRKA siRNAs for 24 h. Quantification of CRLS1 levels (f). g) SH‐SY5Y cells were treated with TDF (10 µM) or DMSO (0.1%) for 24 h after transfection with Scramble, GRB2 or TRKA siRNAs for 24 h. Quantification of mitochondrial CL in SH‐SY5Y cells. Three independent experiments per condition were performed in (b–g). h) Movement track in the open field test. i) Total distance travelled in the open field. j) Time required to descend the pole. k) Time required to fall off the rotarod. (n = 10 mice per group in (h–k). l) Immunohistochemical staining of TH^+ neurons (scale bar = 100 µm). m) Quantification of TH^+ neurons. (n = 3 mice per group in l, m). Data are normalised to those of the DMSO group (c,d) and the Scramble_DMSO group (f). Mean ± standard error of the mean is presented. *p < 0.05, **p < 0.01, ***p < 0.001, ****p < 0.0001, ns, not significant. Student's two‐tailed unpaired t‐test (c,d), two‐way ANOVA with Sidak's multiple comparisons test (f,g,i,j,k and m). Source data are provided in the Source Data file.

Compound	Kd [nM]
COC(c1ccccc1)(c1ccccc1)[C@H](Oc1nc(C)cc(C)n1)C(=O)O [Ambrisentan]	192
CCCC(=O)O[C@]1(C(=O)CCl)[C@@H](C)C[C@H]2[C@@H]3CCC4=CC(=O)C=C[C@]4(C)[C@@]3(F)C(=O)C[C@@]21C [Clobetasone butyrate]	100
NC(=O)N1c2ccccc2CC(=O)c2ccccc21 [Oxcarbazepine]	241
C/C(=C\CO)CCC[C@H](C)CCC[C@H](C)CCCC(C)C [Phytol]	1470
CC(N)C12CC3CC(CC(C3)C1)C2 (centres unmarked) [Rimantadine]	160
O=C1c2ccccc2-c2n[nH]c3cccc1c23 [SP600125]	262
O=C(O)c1ccc2nc(-c3cc(Cl)cc(Cl)c3)oc2c1 [tafamidis]	3730

Now from value to molecule:

Kd [nM]	Compound
15.2	Nc1nc(=O)n([C@@H]2CS[C@H](CO)O2)cc1F [Emtricitabine]
99.6	CC(C)N(CCNC(=O)CN1CCCC1=O)C(C)C [Pramiracetam]
74.3	CC(C)OC(=O)OCOP(=O)(CO[C@H](C)Cn1cnc2c(N)ncnc21)OCOC(=O)OC(C)C [TDF, Tenofovir Disoproxil Fumarate]
